US9248928B2, “Methods of manufacturing contact lenses for delivery of beneficial agents” (CooperVision International Holding Company, LP, priority 2012, dated 2016)
Where a name gives a salt, the structure may show the parent alone. Read-outs that look alike come from different tables or passages of the source.

Columns and labels:
[1] = Autoclave stability of cationic agents in packaging solution
Experimental: (§1) As used herein, a cationic agent is considered to be autoclave-stable in a given package and packaging solution if there is less than 2% degradation of the cationic agent after it is autoclaved two times in its intended package and packaging solution without a lens present, wherein the autoclave conditions used are 120° C. for 30 minutes at about 17 psi. A reference to 2× or 3× autoclave of a package is intended to include a step of allowing the package to cool to room temperature before and after the 2nd, and if applicable, 3rd autoclave treatments. The amount of degradation is determined using an HPLC method appropriate for the cationic agent being tested. Alternatively or additionally, a cationic agent is considered autoclave-stable in a given packaging solution if the percentage of cationic agent that can be extracted from the lens after 2× autoclave is more than 95% of the percentage of cationic agent that can be extracted from a non-autoclaved lens packaged in the same packaging solution and kept at room temperature for 24 hours, where the extraction method used is substantially as described in Example 4, or an equivalent method. The percentage of cationic agent extracted from the autoclaved (test) and non-autoclaved (control) lenses is determined relative to the amount of cationic agent taken up by the test and control lenses, respectfully. Thus, for example, a control lens may take up 100 μg of a cationic agent from a packaging solution after 24 hours at room temperature and 97 μg (i.e. 97%) of the cationic agent can be extracted from the lens. If the corresponding test (2× autoclaved) lens takes up 120 μg of the cationic agent from the packaging solution, but only 108 μg (i.e. 90%) of the cationic agent is extracted using the same extraction method as for the control lens, then there is considered to be a 7% difference between the amount cationic agent extracted from control and test lenses.
Both εPLL and epinastine have primary amine groups, whereas olopatadine and ketotifen have none. […] TRIS buffer drops in pH with increased temperature, down to a pH of about 4.3 during autoclave. […] Thus, in one example, the packaging solution used in the method of manufacturing the contact lenses described herein is temperature-sensitive. By temperature-sensitive, it is meant that the pH of the packaging solution drops by at least one (e.g a drop from pH 7.5 to pH 6.5) during autoclave at 120° C. for 30 minutes. In specific examples, the pH of the temperature-sensitive packaging solution drops during autoclave by at least 1.5, 2.0, or 2.5. Exemplary temperature-sensitive buffers include {[tris(hydroxymethyl)methyl]amino}propanesulfonic acid (TAPS), N,N-bis(21-hydroxyethyl)glycine (Bicine), tris(hycroxymethyl)methylamine (TRIS), N-tris(hydroxymethyl)methylglycine (Tricine), {[tris(hydroxymethyl)methyl]amino}ethanesulfonic acid (TES), 3-(N-morpholino)propanesulfonic acid (MOPS), and the like. […] In one such example, the packaging solution comprises a TRIS buffer. In a further example, the cationic agent comprises a primary amine. In yet a further example, the cationic agent is epinastine or εPLL and the packaging solution comprises a TRIS buffer.

[2] = for % of the epinastine taken up by the lens that released (extracted): PBS
Experimental: as §1
The packaged lenses were either autoclaved once or twice for 20 minutes at 120° C. and then kept at room temperature overnight, or kept at room temperature overnight without autoclaving. 1.2 ml PBS comprising 200 μg/ml epinastine HCL was autoclaved once or twice in a glass vial without a lens (autoclave control solution).
Each lens was blotted dry with lint-free paper, and placed in a vial containing 10 ml of an extraction medium consisting of 60 parts of 0.3% triethylamine in deionized (pH adjusted to 4.0 using phosphoric acid) and 40 parts methanol. The vials were sonicated for 30 minutes at room temperature. The lens were removed from the extraction solution and transferred to individual vials containing 5 ml of fresh extraction medium and sonicated again for 30 minutes. For each lens, the extraction media was combined to obtain 15 ml extraction medium for each lens and the amount of epinastine extracted from each lens was measured by HPLC.
The study was repeated using silicone hydrogel contact lenses prepared according to Example 1 and packaged in TRIS buffer (described above) comprising 150 μg/ml epinastine. The lenses were autoclaved 0-3 times each.

[3] = Autoclave stability of εPLL in PBS or TRIS buffered saline by HPLC; format: physicochemical; details: 500 ppm εPLL, no lens
Experimental: […] The samples were tested by HPLC at a sufficient resolution to achieve a discernable peak for each molecular weight fraction of the εPLL.

[4] = Autoclave # 0, silicone hydrogel lens, TRIS buffer with 150 μg/ml epinastine
[5] = Autoclave # 1x, silicone hydrogel lens, TRIS buffer with 150 μg/ml epinastine
[6] = Autoclave # 2x, silicone hydrogel lens, TRIS buffer with 150 μg/ml epinastine
[7] = Autoclave # 3x, silicone hydrogel lens, TRIS buffer with 150 μg/ml epinastine
[8] = Ocufilcon D lens, Autoclaved, PBS with 200 μg/ml epinastine HCl
[9] = Ocufilcon D lens, Non-Autoclaved, PBS with 200 μg/ml epinastine HCl
[10] = Silicone hydrogel lens (2x autoclave), PBS with 200 μg/ml epinastine HCl
[11] = Silicone hydrogel lens, Autoclaved, PBS with 200 μg/ml epinastine HCl
[12] = Silicone hydrogel lens, Non-Autoclaved, PBS with 200 μg/ml epinastine HCl
[13] = TBS, 9 autoclaves (so in the source)

NC1=NCC2c3ccccc3Cc3ccccc3N12 (stereo not drawn) [epinastine]
autoclave stability ([1]; in PBS): not autoclave-stable
autoclave stability ([1]; in TRIS buffer): autoclave-stable
% Δ [2, 4]: 0.2%
Extracted Amt. [2, 4]: 148.1 µg
Δ [2, 4]: 0.3 µg
% Δ [2, 5]: 1.3%
Extracted Amt. [2, 5]: 148.6 µg
Δ [2, 5]: 1.9 µg
% Δ [2, 6]: 1.3%
Extracted Amt. [2, 6]: 145.4 µg
Δ [2, 6]: 1.9 µg
% Δ [2, 7]: 3.0%
Extracted Amt. [2, 7]: 85.9 µg
Δ [2, 7]: 2.6 µg
% Δ [2, 8]: 7%
Extr. Amt. [2, 8]: 240.4 µg
Δ (uptake minus extracted) [2, 8]: 18.5 µg
% Δ [2, 9]: 2%
Extr. Amt. [2, 9]: 243.5 µg
Δ (uptake minus extracted) [2, 9]: 5.6 µg
% Δ [2, 10]: 18%
Extr. Amt. [2, 10]: 163.4 µg
Δ (uptake minus extracted) [2, 10]: 36.3 µg
% Δ [2, 11]: 10%
Extr. Amt. [2, 11]: 184.5 µg
Δ (uptake minus extracted) [2, 11]: 20.1 µg
% Δ [2, 12]: 1%
Extr. Amt. [2, 12]: 181.7 µg
Δ (uptake minus extracted) [2, 12]: 1.3 µg
% of the epinastine taken up by the lens that released (extracted) ([2]; autoclaved ocufilcon D lens): about 93%
% of the epinastine taken up by the lens that released (extracted) ([2]; autoclaved silicone hydrogel lens): ~90%
% of the epinastine taken up by the lens that released (extracted) ([2]; non-autoclaved control ocufilcon D lens): 98%
% of the epinastine taken up by the lens that released (extracted) ([2]; non-autoclaved control silicone hydrogel lens): 99%
% of the epinastine taken up by the lens that released (extracted) ([2]; silicone hydrogel lens autoclaved a second time): about 82%

CN1CCC(=C2c3ccccc3CC(=O)c3sccc32)CC1 [ketotifen fumarate]
autoclave stability [1]: autoclave-stable

CN(C)CC/C=C1/c2ccccc2COc2ccc(CC(=O)O)cc21 [olopatadine HCl]
autoclave stability [1]: autoclave-stable

epsilon poly-1-lysine [εPLL]
Total # peaks ([3]; PBS, 0 autoclaves): 23
Total peak area ([3]; PBS, 0 autoclaves): 16005557
% Area (relative to non-autoclaved) ([3]; PBS, 2 autoclaves): 91%
Total # peaks ([3]; PBS, 2 autoclaves): 28
Total peak area ([3]; PBS, 2 autoclaves): 14566887
% Area (relative to non-autoclaved) ([3]; PBS, 4 autoclaves): 90%
Total # peaks ([3]; PBS, 4 autoclaves): 28
Total peak area ([3]; PBS, 4 autoclaves): 14468122
% Area (relative to non-autoclaved) ([3]; TBS, 2 autoclaves): 99%
Total # peaks ([3]; TBS, 2 autoclaves): 27
Total peak area ([3]; TBS, 2 autoclaves): 14636372
% Area (relative to non-autoclaved) ([3]; TBS, 4 autoclaves): 98%
Total # peaks ([3]; TBS, 4 autoclaves): 27
Total peak area ([3]; TBS, 4 autoclaves): 14476291
Total # peaks [3, 13]: 23
Total peak area [3, 13]: 14800289
autoclave stability ([1]; in PBS): not autoclave-stable
autoclave stability ([1]; in TRIS buffer): autoclave-stable
